Experimental data taken from patent US12577522B2, “System and method for screening therapeutic agents” (Carnegie Mellon University, priority 2020, dated 2026).

Legend:
[1] = test system: MDA-MB-231 cell; settings: previously reported; cited from earlier work
[2] = test system: MDA-MB-231 human breast cancer cell line mouse xenografts (tumor fragments); assay: 3D ECM microsystem (collagen tumor-on-a-chip): tumor fragment drug screening, live/dead viability and COMPUSYN combination index; type: cell-based; settings: three days
[3] = Drug gradient characterization in 3D collagen scaffold by confocal microscopy; type: physicochemical; settings: confocal fluorescence; doxorubicin after 24 h, left to right channel
[4] = test system: MDA-MB-231 human breast cancer cell line mouse xenografts (tumor fragments); assay: 2D 96-well plate control: tumor fragment drug screening, live/dead viability and COMPUSYN combination index; type: cell-based; settings: 2D 96-well control, three days, drug refreshed every 12 h

Q: With `COc1cccc2c1C(=O)c1c(O)c3c(c(O)c1C2=O)C[C@@](O)(C(=O)CO)C[C@@H]3O[C@H]1C[C@H](N)[C@H](O)[C@H](C)O1` [doxorubicin] as the molecule, how does the “median effect dose (Dm)” value [1] read?
A: much lower than 4-hydroxycyclophosphamide

Q: And the “tumor viability (live/dead staining)” value ([2]; 3D ECM microsystem, drug replenished every 12 h)?
A: dose-dependent decrease in viability

Q: And the “viability in 3D ECM microsystem relative to 2D controls” value ([2]; doses in 2D matched to 48 h simulated concentration)?
A: lower viability compared to 2D controls

Q: And the “diffusion profile in 3D collagen scaffold” value [3]?
A: approximately linear concentration profile

Q: What about the “tumor viability (live/dead staining)” value [4] of the same molecule?
A: dose-dependent decrease in viability
